Where two headings read alike, the source gives them in different places. Blank lines part the entries; values can stand above or below the compound they belong to.
Tests used:
[1] = Brain tissue binding, equilibrium dialysis (rat); type: in vitro ADME
Protocol: Thawing of the frozen brain tissue homogenate (stored at −80° C.). Frozen brain tissue homogenate was thawed immediately in a room temperature bath. Note: Only use brain tissue homogenate that has been thawed no more than once.
Preparation of working solutions. The working solutions of test compound and control compound propranolol were prepared in DMSO at the concentration of 200 μM. And then 4 μL of working solution was removed to mix with 796 μL of rat brain tissue homogenate to achieve a final concentration of 1 μM (0.5% DMSO). Brain tissue homogenate samples were vortexed thoroughly.
Preparation of dialysis membranes. The dialysis membranes were soaked in ultrapure water for 60 minutes to separate strips, then in 20% ethanol for 20 minutes, finally in dialysis buffer for 20 minutes.
Procedure for equilibrium dialysis. The dialysis apparatus was assembled according to the manufacturer's instruction. Each cell was filled with 150 μL of brain tissue homogenate sample and dialyzed against equal volume of dialysis buffer (PBS). The assay was performed in duplicate. The dialysis plate was sealed and incubated in an incubator at 37° C. with 5% CO2 at approximately 100 rpm for 6 hours. At the end of dialysis, seal was removed and 50 μL of samples from both buffer and brain tissue homogenate chambers were transferred into separate tubes in plate.
Procedure for sample analysis. 50 μL of brain tissue homogenate was added to each buffer samples and an equal volume of PBS was supplemented to the collected brain tissue homogenate sample. 400 μL of room temperature quench solution (acetonitrile containing internal standards (IS, 100 nM Alprazolam, 500 nM Labetalol and 2 μM Ketoprofen)) was added to precipitate protein. Samples in plate were vortexed for 5 minutes and centrifuged at 3,220 g for 30 minutes at room temperature. And then 100 μL of the supernatant was transferred to a new 96-well plate with 100 μL water for LC-MS/MS analysis.
Data analysis. All calculations were carried out using Microsoft Excel. […]
Fumeans=unbound fraction measured with brain tissue homogenate […]

[2] = Rat pharmacokinetic studies; type: in vivo, male SD rats; set-up: AUClast/D: unit not given here; settings: for AUC(0-t) / AUC(0-inf) / C0 / half-life / MRT inf / Vd / Cmax / Tmax: male, SD; for MRT inf: read-out: MRTInf—obs; for Vd: read-out: Vss—obs
Protocol: (§1) The rat pharmacokinetics studies of exemplary compounds 03-3, 03-5, and 03-115 were conducted with male SD rats. These rats were typically about 6-8 weeks old, weighing 200 g to 300 g. Animals were fasted overnight and free access to food 4 hours after dosing. A required volume of vehicle was added to reach the target concentration of the test article and vehicle component to prepare for the dosing. The dosing vehicle was PEG400 or 30% PEG400 in saline for IV, or 0.5% methylcellulose in water for PO. For IV dosing, the animals were administered intravenously via tail vein. For PO dosing, the animals were administered via oral gavage. After dosing, blood sample was collected (˜0.2 mL per time point) through jugular vein or heart puncture. Blood of each sample was transferred into plastic micro centrifuge tubes containing EDTA-K2. Collection tubes with blood samples and anticoagulant were inverted several times for proper mixing of the tube contents and then placed on wet ice. The blood samples were centrifuged at 2000 g for 5 minutes at 4° C. to obtain plasma which was stored in a freezer at −75±15° C. prior to analysis. Samples were analyzed using LC-MS/MS. WinNonlin were used for pharmacokinetic calculations.

[3] = Rat CNS exposure measurement (plasma, CSF, brain); type: in vivo, male SD rats; settings: male, SD
[4] = Dog pharmacokinetic studies; type: in vivo, male Beagle dogs; settings: for AUC(0-inf) / Cmax / MRT / Tmax: male, Beagle
Protocol: as §1
(§2) Dog pharmacokinetics studies of exemplary compounds 03-3, 03-5, and 03-115 were conducted substantially similarly to the rat pharmacokinetic studies, instead using male Beagle dogs. Animals for PO studies were food fasted overnight prior to dosing and were fed approximately 2 hours after dosing. Animals for IV studies had free access to food and water. Blood samples were collected through venipuncture of peripheral veins except the dosing vein.

[5] = Monkey pharmacokinetic studies; type: in vivo, male Non-Naïve Cynomolgus Monkeys; set-up: AUClast/D: unit not given here; settings: PO 0.3 mg/kg; for AUC(0-inf) / AUC(0-t) / Cmax / Tmax / half-life / MRT inf: male, cynomolgus monkey; for MRT inf: read-out: MRTInf—obs
Protocol: as §1
as §2, with “Monkey” for “Dog”, “Non-Naïve Cynomolgus Monkeys.” for “Beagle dogs.”

SMILES: CC(C)(C)NC[C@H](O)c1cccc(C(F)(F)F)n1 [Compound 03-3]
fraction unbound at 6 h, 1 μM ([1]; rat, brain homogenate): 0.48 | AUClast/D ([2]; IV 1 mg/kg): 546 | AUC—% Extrap—obs ([2]; IV 1 mg/kg): 1.14% | Cl_obs ([2]; IV 1 mg/kg): 30.2 mL/min/kg | AUClast/D ([2]; PO 5 mg/kg): 845 | AUC—% Extrap—obs ([2]; PO 5 mg/kg): 0.0970% | F ([2]; PO 5 mg/kg): 153% | AUC(0-t) ([2]; in vivo, IV 1 mg/kg): 546 ng·h/mL | AUC(0-inf) ([2]; plasma, IV 1 mg/kg): 552 ng·h/mL | C0 ([2]; plasma, IV 1 mg/kg): 388 ng/mL | half-life ([2]; plasma, IV 1 mg/kg): 1.28 h | MRT inf ([2]; plasma, IV 1 mg/kg): 1.61 h | Vd ([2]; plasma, IV 1 mg/kg): 2.92 L/kg | AUC(0-inf) ([2]; plasma, PO 5 mg/kg): 4230 ng·h/mL | AUC(0-t) ([2]; plasma, PO 5 mg/kg): 4220 ng·h/mL | Cmax ([2]; plasma, PO 5 mg/kg): 818 ng/mL | Tmax ([2]; plasma, PO 5 mg/kg): 1.17 h | half-life ([2]; plasma, PO 5 mg/kg): 2.44 h | MRT inf ([2]; plasma, PO 5 mg/kg): 3.93 h | concentration at 1 h ([3]; CSF, iv, 1 mg/kg, IV 1 mg/kg, read-out: Concentration, CSF): 142 ng/mL | concentration at 1 h ([3]; brain, iv, 1 mg/kg, IV 1 mg/kg, read-out: Concentration, Brain): 680 ng/g | concentration at 1 h ([3]; plasma, iv, 1 mg/kg, IV 1 mg/kg, read-out: Concentration, Plasma): 199 ng/mL | F ([4]; PO 1 mg/kg): 111% | F ([4]; PO 2.5 mg/kg): 194% | AUC(0-inf) ([4]; plasma, PO 1 mg/kg): 584 ng·h/mL | Cmax ([4]; plasma, PO 1 mg/kg): 227 ng/mL | MRT ([4]; plasma, PO 1 mg/kg): 1.93 h | Tmax ([4]; plasma, PO 1 mg/kg): 0.5 h | AUC(0-inf) ([4]; plasma, PO 2.5 mg/kg): 1590 ng·h/mL | Cmax ([4]; plasma, PO 2.5 mg/kg): 413 ng/mL | MRT ([4]; plasma, PO 2.5 mg/kg): 3.19 h | Tmax ([4]; plasma, PO 2.5 mg/kg): 0.5 h | AUClast/D [5]: 761 | AUC—% Extrap—obs [5]: 1.87% | F [5]: 44.6% | AUC(0-inf) ([5]; plasma): 232 ng·h/mL | AUC(0-t) ([5]; plasma): 228 ng·h/mL | Cmax ([5]; plasma): 46.6 ng/mL | Tmax ([5]; plasma): 1 h | half-life ([5]; plasma): 4.32 h | MRT inf ([5]; plasma): 4.99 h

fraction unbound at 6 h, 1 μM ([1]; rat, brain homogenate): 0.95 | AUClast/D ([2]; IV 1 mg/kg): 461 | AUC—% Extrap—obs ([2]; IV 1 mg/kg): 0.457% | Cl_obs ([2]; IV 1 mg/kg): 37.3 mL/min/kg | AUClast/D ([2]; PO 5 mg/kg): 450 | AUC—% Extrap—obs ([2]; PO 5 mg/kg): 4.10% | F ([2]; PO 5 mg/kg): 101% | AUC(0-inf) ([2]; plasma, IV 1 mg/kg): 463 ng·h/mL | AUC(0-t) ([2]; plasma, IV 1 mg/kg): 461 ng·h/mL | C0 ([2]; plasma, IV 1 mg/kg): 468 ng/mL | half-life ([2]; plasma, IV 1 mg/kg): 0.644 h | MRT inf ([2]; plasma, IV 1 mg/kg): 0.873 h | Vd ([2]; plasma, IV 1 mg/kg): 1.89 L/kg | AUC(0-inf) ([2]; plasma, PO 5 mg/kg): 2340 ng·h/mL | AUC(0-t) ([2]; plasma, PO 5 mg/kg): 2250 ng·h/mL | Cmax ([2]; plasma, PO 5 mg/kg): 717 ng/mL | Tmax ([2]; plasma, PO 5 mg/kg): 0.75 h | half-life ([2]; plasma, PO 5 mg/kg): 1.61 h | MRT inf ([2]; plasma, PO 5 mg/kg): 2.62 h | concentration at 1 h ([3]; CSF, IV 1 mg/kg, read-out: Concentration, CSF): 113 ng/mL | concentration at 1 h ([3]; CSF, PO 5 mg/kg, read-out: Concentration, CSF): 242 ng/mL | concentration at 1 h ([3]; brain, IV 1 mg/kg, read-out: Concentration, Brain): 267 ng/g | concentration at 1 h ([3]; brain, PO 5 mg/kg, read-out: Concentration, Brain): 497 ng/g | concentration at 1 h ([3]; plasma, IV 1 mg/kg, read-out: Concentration, Plasma): 184 ng/mL | concentration at 1 h ([3]; plasma, PO 5 mg/kg, read-out: Concentration, Plasma): 642 ng/mL | F ([4]; PO 0.3 mg/kg): 72% | F ([4]; PO 1 mg/kg): 70% | AUC(0-inf) ([4]; plasma, PO 0.3 mg/kg): 55.4 ng·h/mL | Cmax ([4]; plasma, PO 0.3 mg/kg): 43.2 ng/mL | MRT ([4]; plasma, PO 0.3 mg/kg): 1.22 h | Tmax ([4]; plasma, PO 0.3 mg/kg): 0.42 h | AUC(0-inf) ([4]; plasma, PO 1 mg/kg): 273 ng·h/mL | Cmax ([4]; plasma, PO 1 mg/kg): 164 ng/mL | MRT ([4]; plasma, PO 1 mg/kg): 1.37 h | Tmax ([4]; plasma, PO 1 mg/kg): 0.33 h | AUClast/D [5]: 1144 | AUC—% Extrap—obs [5]: 2.13% | F [5]: 88.3% | AUC(0-inf) ([5]; plasma): 351 ng·h/mL | AUC(0-t) ([5]; plasma): 343 ng·h/mL | Cmax ([5]; plasma): 66.2 ng/mL | Tmax ([5]; plasma): 1 h | half-life ([5]; plasma): 4.53 h | MRT inf ([5]; plasma): 5.11 h
SMILES: CC(C)(C)NC[C@H](O)c1cccc(C#N)n1 [Compound 03-5, (S)-6-(2-(tert-butylamino)-1-hydroxyethyl)picolinonitrile]

SMILES: Cc1ncccc1[C@@H](O)CNC(C)(C)C [Compound 03-115]
fraction unbound at 6 h, 1 μM ([1]; 1 μM, rat brain tissue homogenate, dialysis 6 hours, read-out: BTB (rat), percent of unbound fraction): 1 | Cl_obs ([2]; IV 1 mg/kg): 103 mL/min/kg | F ([2]; PO 5 mg/kg): 23% | AUC(0-inf) ([2]; in vivo, IV 1 mg/kg): 164 ng·h/mL | C0 ([2]; in vivo, IV 1 mg/kg): 512 ng/mL | half-life ([2]; in vivo, IV 1 mg/kg): 0.36 h | Vd ([2]; in vivo, IV 1 mg/kg): 2.4 L/kg | AUC(0-inf) ([2]; in vivo, PO 5 mg/kg): 192 ng·h/mL | Cmax ([2]; in vivo, PO 5 mg/kg): 174 ng/mL | Tmax ([2]; in vivo, PO 5 mg/kg): 0.25 h | half-life ([2]; in vivo, PO 5 mg/kg): 1.61 h | MRT inf ([2]; in vivo, PO 5 mg/kg): 1.06 h | concentration at 1 h ([3]; in vivo, SC 1 mg/kg, read-out: Concentration, Plasma): 149 ng/mL | concentration at 1 h ([3]; in vivo, sc, 1 mg/kg, SC 1 mg/kg, read-out: Concentration, Brain): 142 ng/g | concentration at 1 h ([3]; in vivo, sc, 1 mg/kg, SC 1 mg/kg, read-out: Concentration, CSF): 56.2 ng/mL | F ([4]; PO 0.5 mg/kg): 53% | F ([4]; PO 1.5 mg/kg): 71% | AUC(0-inf) ([4]; in vivo, PO 0.5 mg/kg): 132 ng·h/mL | Cmax ([4]; in vivo, PO 0.5 mg/kg): 72.3 ng/mL | MRT ([4]; in vivo, PO 0.5 mg/kg): 1.82 h | Tmax ([4]; in vivo, PO 0.5 mg/kg): 0.5 h | AUC(0-inf) ([4]; in vivo, PO 1.5 mg/kg): 537 ng·h/mL | Cmax ([4]; in vivo, PO 1.5 mg/kg): 387 ng/mL | MRT ([4]; in vivo, PO 1.5 mg/kg): 1.69 h | Tmax ([4]; in vivo, PO 1.5 mg/kg): 0.33 h | F [5]: 71% | AUC(0-inf) ([5]; in vivo): 261 ng·h/mL | Cmax ([5]; in vivo): 67 ng/mL | Tmax ([5]; in vivo): 1.17 h | MRT inf ([5]; in vivo): 3.46 h

— patent US10947196B2, “Beta adrenergic agonist and methods of using the same” (CURASEN THERAPEUTICS, INC., priority 2019, dated 2021)
